In the Kinase Knowledgebase extract (Sharma et al. 2016):

How the values were obtained:
PIK3CA (human) [1] = target: PIK3CA (human) (UniProt P42336); experiment: Enzyme Assay
PIK3CA (human) [2] = target: PIK3CA (human) (UniProt P42336); experiment: Assessment of Cell Proliferation in MDA-MB-361.1 Cells; settings: mda-mb-361
PIK3CA (human) [3] = target: PIK3CA (human) (UniProt P42336); experiment: Assessment of Cell Proliferation in PC3 Cells; settings: pc-3

Chain of PIK3CA (human) (P42336 whole entry, looked up): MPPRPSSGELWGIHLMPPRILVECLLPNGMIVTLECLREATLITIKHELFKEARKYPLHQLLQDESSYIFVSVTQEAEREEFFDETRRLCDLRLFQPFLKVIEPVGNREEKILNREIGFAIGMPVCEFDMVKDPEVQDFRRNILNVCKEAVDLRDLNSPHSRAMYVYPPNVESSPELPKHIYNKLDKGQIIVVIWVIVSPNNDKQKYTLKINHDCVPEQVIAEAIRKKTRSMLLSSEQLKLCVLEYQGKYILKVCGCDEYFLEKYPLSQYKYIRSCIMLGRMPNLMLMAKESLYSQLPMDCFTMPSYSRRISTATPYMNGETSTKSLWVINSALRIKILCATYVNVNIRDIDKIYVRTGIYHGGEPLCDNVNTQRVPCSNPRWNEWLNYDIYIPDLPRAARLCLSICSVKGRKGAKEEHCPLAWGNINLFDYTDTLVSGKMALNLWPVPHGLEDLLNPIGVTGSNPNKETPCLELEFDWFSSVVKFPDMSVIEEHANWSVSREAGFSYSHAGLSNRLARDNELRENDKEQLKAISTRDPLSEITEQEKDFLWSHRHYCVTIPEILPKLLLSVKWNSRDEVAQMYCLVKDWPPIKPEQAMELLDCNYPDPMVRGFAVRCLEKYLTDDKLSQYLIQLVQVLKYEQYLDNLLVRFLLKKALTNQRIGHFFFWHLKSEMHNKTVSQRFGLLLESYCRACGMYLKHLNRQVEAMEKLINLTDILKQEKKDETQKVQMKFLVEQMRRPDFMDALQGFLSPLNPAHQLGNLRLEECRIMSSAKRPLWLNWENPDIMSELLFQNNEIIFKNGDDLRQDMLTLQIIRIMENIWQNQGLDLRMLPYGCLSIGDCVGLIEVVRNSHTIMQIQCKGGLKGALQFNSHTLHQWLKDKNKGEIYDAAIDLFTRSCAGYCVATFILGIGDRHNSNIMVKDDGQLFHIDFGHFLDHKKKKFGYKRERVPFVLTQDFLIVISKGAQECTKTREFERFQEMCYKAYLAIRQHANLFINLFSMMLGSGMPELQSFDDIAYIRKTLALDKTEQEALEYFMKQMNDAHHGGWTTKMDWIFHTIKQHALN

IC50 (PIK3CA (human) [1])	EC50 (PIK3CA (human) [2])	EC50 (PIK3CA (human) [3])	SMILES
0.0452 µM			Nc1ccc(-c2nc(N3CCOCC3)c3nc4n(c3n2)CCOC4C(F)(F)F)cn1 (centres undefined)
0.394 µM	3.4 µM	3.6 µM	CC1(C)OCCn2c1nc1c(N3C[C@@H]4C[C@H]3CO4)nc(-c3cnc(N)nc3)nc12
0.0507 µM			Nc1ccc(-c2nc(N3CCOCC3)c3nc4n(c3n2)CCCC4)cn1
0.00458 µM			CC1(C)OCCn2c1nc1c(N3CCOCC3)nc(-c3cccc(O)c3)nc12
0.00596 µM			CC[C@@]1(C)OCCn2c1nc1c(N3CCOCC3)nc(-c3cnc(N)nc3)nc12
0.00245 µM			Nc1ncc(-c2nc(N3CCOCC3)c3nc4n(c3n2)CCOC42COC2)cn1
0.0452 µM	4.4 µM	6.9 µM	FC(F)(F)C1OCCn2c1nc1c(N3CCOCC3)nc(-c3cccc4[nH]ncc34)nc12 (centres undefined)
0.382 µM			CC1(C)OCCn2c1nc1c(N3CCOCC3)nc(-c3cn[nH]c3)nc12
0.337 µM	1.2 µM	1.3 µM	CC(C)NC(=O)Nc1ccc(-c2nc(N3CCOCC3)c3nc4n(c3n2)CCOC4(C)C)cc1
0.00389 µM			CC1(C)OCCn2c1nc1c(N3CCOCC3)nc(-c3cnc(N)cc3C(F)(F)F)nc12
0.242 µM			CC(=O)Nc1ncc(-c2nc(N3CCOCC3)c3nc4n(c3n2)CCOC4(C)C)cn1
	10 µM	10 µM	CN(C)c1cnc(-c2nc(N3CCOCC3)c3nc4n(c3n2)CCOC4(C)C)cn1
0.00432 µM			Nc1ncc(-c2nc(N3CCOCC3)c3nc4n(c3n2)CCOC4)cn1
0.685 µM			CC1(C)OCCn2c1nc1c(N3CCOCC3)nc(-c3ccnc(N)c3)nc12
0.000831 µM	0.094 µM	0.185 µM	CC1(C)OCCn2c1cc1c(N3CCOCC3)nc(-c3cnc(N)nc3)nc12
0.0198 µM			CC1(C)OCCn2c1nc1c(N3CCOCC3)nc(-c3cccc4[nH]ncc34)nc12
0.00345 µM			Nc1ncc(-c2nc(N3CCOCC3)c3nc4n(c3n2)CCO[C@@H]4C(F)(F)F)cn1
0.0797 µM	0.92 µM	1.1 µM	Oc1cccc(-c2nc(N3CCOCC3)c3nc4n(c3n2)CCOC4C(F)(F)F)c1 (centres undefined)
	10 µM	10 µM	CC1(C)OCCn2c1nc1c(N3CCOCC3)nc(-c3ccc(N)cn3)nc12
0.0112 µM			Nc1cc(C(F)(F)F)c(-c2nc(N3CCOCC3)c3nc4n(c3n2)CCOC4)cn1
0.014 µM			CC1(C)OCCn2c1nc1c(N3CCOCC3)nc(-c3cnc4[nH]ccc4c3)nc12
0.049 µM			CC(=O)Nc1ccc(-c2nc(N3CCOCC3)c3nc4n(c3n2)CCOC4(C)C)cn1
0.541 µM			CC1(C)OCCn2c1nc1c(N3CCOCC3)nc(-c3ccc(N)cc3)nc12

IC50 (PIK3CA (human) [1])	EC50 (PIK3CA (human) [2])	EC50 (PIK3CA (human) [3])	SMILES
0.00473 µM			CC1=COC(C)(C)c2nc3c(N4CCOCC4)nc(-c4cnc(N)nc4)nc3n21
0.0352 µM			CC1(C)OCCn2c1nc1c(N3CCOCC3)nc(-c3cncc(C(N)=O)c3)nc12
0.001 µM	0.237 µM	0.215 µM	CC1(C)OCCc2c1sc1c(N3CCOCC3)nc(-c3cnc(N)nc3)nc21
0.0779 µM	3.2 µM	2 µM	Nc1ncc(-c2nc(N3CCOCC3)c3c(n2)N2CCC[C@H]2CO3)cn1
0.00671 µM			CNC(=O)Nc1ccc(-c2nc(N3CCOCC3)c3nc4n(c3n2)CCOC4(C)C)cc1
0.00826 µM			Nc1ncc(-c2nc(N3CCOCC3)c3nc4n(c3n2)CCC4)cn1
0.0417 µM			CCNC(=O)Nc1ccc(-c2nc(N3CCOCC3)c3nc4n(c3n2)CCOC4(C)C)cc1
0.00311 µM			CC[C@]1(C)OCCn2c1nc1c(N3CCOCC3)nc(-c3cnc(N)nc3)nc12
0.00137 µM			Nc1ncc(-c2nc(N3CCOCC3)c3nc4n(c3n2)CCC2(CC2)O4)cn1
0.00509 µM	0.958 µM	1.8 µM	CC1(C)CCn2c(nc3c(N4CCOCC4)nc(-c4cnc(N)nc4)nc32)O1
0.00428 µM			CC1NC(=O)Cn2c1nc1c(N3CCOCC3)nc(-c3cnc(N)nc3)nc12 (centres undefined)
0.00388 µM			Nc1ncc(-c2nc(N3CCOCC3)c3nc4n(c3n2)CCCC4)cn1
0.00357 µM	0.424 µM	0.697 µM	Nc1ncc(-c2nc(N3CCOCC3)c3nc4n(c3n2)CCO[C@H]4C(F)(F)F)cn1
0.0215 µM			CN1CCn2c(nc3c(N4CCOCC4)nc(-c4cnc(N)nc4)nc32)C1=O
0.00684 µM			Nc1ncc(-c2nc(N3CCOCC3)c3nc4n(c3n2)CCCO4)cn1
0.0186 µM			CC1(C)OCCn2c1nc1c(N3CCOCC3)nc(-c3ccc(N)nc3)nc12
	10 µM	10 µM	CC(C)Cn1cc(-c2nc(N3CCOCC3)c3nc4n(c3n2)CCOC4(C)C)cn1
0.00689 µM	0.889 µM	1.9 µM	CC1c2nc3c(N4CCOCC4)nc(-c4cnc(N)nc4)nc3n2CCN1C (centres undefined)
2.1 µM	0.315 µM	0.208 µM	CCNC(=O)Nc1ccc(-c2nc(N3CCOCC3)c3c(n2)C2(C)CCOC2N3C)cc1 (centres undefined)
0.201 µM	1.5 µM	1.4 µM	CC1(C)CN(c2nc(-c3cnc(N)nc3)nc3c2nc2n3CCOC2(C)C)CCO1
0.638 µM			CC1(C)OCCn2c1nc1c(N3CCOCC3)nc(-c3ccccc3NS(C)(=O)=O)nc12
0.014 µM	3.1 µM	3.8 µM	C[C@@H]1CN(c2nc(-c3cnc(N)nc3)nc3c2nc2n3CCOC2(C)C)C[C@H](C)O1
